Reference: patent publication US20230322747A1, “OXADIAZOLE HDAC6 INHIBITORS AND USES THEREOF” (Eikonizo Therapeutics, Inc., priority 2022, published 2023)

The molecules below were run against Human HDAC6 (Homo sapiens (Human), UniProt Q9UBN7) (assay: HDAC6 enzymatic activity assay (Caliper endpoint or fluorogenic format)). Conditions: in vitro enzymatic.
Format: biochemical

Chain of Human HDAC6 (Q9UBN7 whole entry): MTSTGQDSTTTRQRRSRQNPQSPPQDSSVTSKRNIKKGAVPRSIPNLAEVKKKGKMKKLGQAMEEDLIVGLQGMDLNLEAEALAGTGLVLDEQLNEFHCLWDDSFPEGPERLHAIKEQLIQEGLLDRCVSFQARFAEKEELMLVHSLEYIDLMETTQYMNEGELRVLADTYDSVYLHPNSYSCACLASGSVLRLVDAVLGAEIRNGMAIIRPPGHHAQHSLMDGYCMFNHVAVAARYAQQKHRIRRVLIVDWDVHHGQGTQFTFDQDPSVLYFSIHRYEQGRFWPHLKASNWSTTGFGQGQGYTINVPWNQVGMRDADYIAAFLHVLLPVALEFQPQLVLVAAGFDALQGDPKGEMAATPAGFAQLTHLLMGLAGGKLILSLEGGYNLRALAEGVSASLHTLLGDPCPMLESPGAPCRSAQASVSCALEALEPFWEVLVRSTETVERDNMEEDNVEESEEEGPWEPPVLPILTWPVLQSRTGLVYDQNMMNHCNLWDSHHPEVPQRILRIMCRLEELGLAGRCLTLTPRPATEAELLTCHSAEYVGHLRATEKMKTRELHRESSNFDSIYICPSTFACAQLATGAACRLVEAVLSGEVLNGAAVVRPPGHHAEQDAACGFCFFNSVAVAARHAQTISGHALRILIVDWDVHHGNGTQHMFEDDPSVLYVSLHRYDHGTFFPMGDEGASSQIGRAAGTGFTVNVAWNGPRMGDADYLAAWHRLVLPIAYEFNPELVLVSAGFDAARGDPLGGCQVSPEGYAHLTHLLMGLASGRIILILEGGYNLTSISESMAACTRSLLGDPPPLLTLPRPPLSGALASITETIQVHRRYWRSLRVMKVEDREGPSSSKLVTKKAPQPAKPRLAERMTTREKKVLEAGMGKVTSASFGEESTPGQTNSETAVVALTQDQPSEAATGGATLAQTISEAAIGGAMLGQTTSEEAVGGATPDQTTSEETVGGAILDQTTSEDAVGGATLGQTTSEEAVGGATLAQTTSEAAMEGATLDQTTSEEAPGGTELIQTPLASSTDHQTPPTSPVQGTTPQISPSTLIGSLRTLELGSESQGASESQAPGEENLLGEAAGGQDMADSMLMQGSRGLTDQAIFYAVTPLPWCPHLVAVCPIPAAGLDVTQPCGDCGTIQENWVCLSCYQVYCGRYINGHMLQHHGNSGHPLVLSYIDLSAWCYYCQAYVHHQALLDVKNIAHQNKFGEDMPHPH

How did the IC50 turn out when `CC(Oc1ccc(F)cc1)c1ccc(-c2nnc(C(F)F)o2)cn1` (stereo not shown) [AAA, 2-(Difluoromethyl)-5-(6-(1-(4-fluorophenoxy)ethyl)pyridin-3-yl)-1,3,4-oxadiazole] was run?
The IC50 was 1 to 10 µM.

For `FC(F)c1nnc(-c2ccc(C(F)(F)Oc3cccc4ccccc34)nc2)o1` [Compound 14, 2-(6-(difluoro(naphthalen-1-yloxy)methyl)pyridin-3-yl)-5-(difluoromethyl)-1,3,4-oxadiazole], which IC50 is on record?
Its IC50 is 0.1 to 1 µM.

For `Fc1ccc(OCc2ncc(-c3nnc(C(F)F)o3)cn2)cc1F` [Compound 22], which IC50 is on record?
Its IC50 is 0.001 to 0.1 µM.

Which IC50 does the source give for `FC(F)c1nnc(-c2ccc(COCC3CC4CCC(C3)N4)nc2)o1` (stereo not shown) [Compound 23] here?
The IC50 was 0.1 to 1 µM.

How did the IC50 turn out when `CN1C[C@@]2(COCc3ccc(-c4nnc(C(F)F)o4)cn3)C[C@@H]1CO2` [Compound 25] was run?
Its IC50 is 0.1 to 1 µM.

Which IC50 does the source give for `FC(F)c1nnc(-c2ccc(COc3cccc4ccncc34)nc2)o1` [Compound 33] here?
Its IC50 is 0.001 to 0.1 µM.

`Cc1nc2ccc(OCc3ccc(-c4nnc(C(F)F)o4)cn3)cc2o1` [Compound 38] was tested. Which IC50 did it give?
The IC50 was 0.001 to 0.1 µM.

`Cn1ccc(OCc2ccc(-c3nnc(C(F)F)o3)cn2)n1` [Compound 66] was tested. Which IC50 did it give?
Its IC50 is 0.001 to 0.1 µM.

With `FC(F)c1nnc(-c2ccc(COc3ncccn3)nc2)o1` [Compound 78] as the molecule, how does the IC50 read?
Its IC50 is 0.1 to 1 µM.

For `Cc1ncc(F)c(OCc2ccc(-c3nnc(C(F)F)o3)cn2)n1` [Compound 81], which IC50 is on record?
Its IC50 is 0.001 to 0.1 µM.

`FC(F)c1nnc(-c2ccc(COc3nccn4ccnc34)nc2)o1` [Compound 86, 2-(difluoromethyl)-5-(6-((imidazo[1,2-a]pyrazin-8-yloxy)methyl)pyridin-3-yl)-1,3,4-oxadiazole] was tested. Which IC50 did it give?
The IC50 was 0.001 to 0.1 µM.

Which IC50 does the source give for `FC(F)c1nnc(-c2ccc(COc3nnc4ccccn34)nc2)o1` [Compound 87] here?
Its IC50 is 0.001 to 0.1 µM.

For `Cc1ccc2nnc(OCc3ccc(-c4nnc(C(F)F)o4)cn3)n2c1` [Compound 89], which IC50 is on record?
Its IC50 is 0.001 to 0.1 µM.

With `FC(F)c1nnc(-c2ccc(COc3ccc(C(F)(F)F)cn3)nc2)o1` [Compound 94] as the molecule, how does the IC50 read?
Its IC50 is 0.1 to 1 µM.

`Cc1ccc2ncnc(OCc3ccc(-c4nnc(C(F)F)o4)cn3)c2c1` [Compound 95] was tested. Which IC50 did it give?
The IC50 was 0.001 to 0.1 µM.

For `Cc1cccc2c(OCc3ccc(-c4nnc(C(F)F)o4)cn3)ncnc12` [Compound 96], which IC50 is on record?
The IC50 was 0.001 to 0.1 µM.

Which IC50 does the source give for `FC(F)c1nnc(-c2ccc(COc3ncnc4cc(Cl)ccc34)nc2)o1` [Compound 98] here?
The IC50 was 0.001 to 0.1 µM.

For `FC(F)c1nnc(-c2ccc(COc3ncco3)nc2)o1` [Compound 100], which IC50 is on record?
Its IC50 is 0.1 to 1 µM.

With `FC(F)c1nnc(-c2ccc(COc3cccnn3)nc2)o1` [Compound 103] as the molecule, how does the IC50 read?
The IC50 was 0.1 to 1 µM.

With `FC(F)c1nnc(-c2ccc(COc3ccncn3)nc2)o1` [Compound 104] as the molecule, how does the IC50 read?
The IC50 was 0.001 to 0.1 µM.

For `Cn1ccnc1OCc1ccc(-c2nnc(C(F)F)o2)cn1` [Compound 105], which IC50 is on record?
The IC50 was 0.1 to 1 µM.

With `Fc1cncnc1OCc1ccc(-c2nnc(C(F)F)o2)cn1` [Compound 107] as the molecule, how does the IC50 read?
The IC50 was 0.001 to 0.1 µM.

With `FC(F)c1nnc(-c2ccc(COC3CC4CCC(C3)O4)nc2)o1` (stereo not shown) [Compound 109] as the molecule, how does the IC50 read?
Its IC50 is 0.1 to 1 µM.

Which IC50 does the source give for `FC(F)c1nnc(-c2ccc(CO[C@@H]3C[C@H]4CC[C@@H](C3)O4)nc2)o1` [Compound 110] here?
The IC50 was 0.1 to 1 µM.

For `CN1[C@@H]2CC[C@H]1C[C@H](OCc1ccc(-c3nnc(C(F)F)o3)cn1)C2` [Compound 113], which IC50 is on record?
The IC50 was 1 to 10 µM.

With `N#Cc1ccc(COCc2ccc(-c3nnc(C(F)F)o3)cn2)s1` [Compound 120] as the molecule, how does the IC50 read?
The IC50 was 0.1 to 1 µM.

How did the IC50 turn out when `CN1CCc2cc(OCc3ccc(-c4nnc(C(F)F)o4)cn3)ccc2C1` [Compound 121] was run?
The IC50 was 0.1 to 1 µM.

Which IC50 does the source give for `Fc1cc(-c2nnc(C(F)F)o2)cnc1COc1cccn2ccnc12` [Compound 123] here?
The IC50 was 0.001 to 0.1 µM.

Which IC50 does the source give for `Fc1cc(-c2nnc(C(F)F)o2)cnc1COc1ccc2cccnc2c1` [Compound 124] here?
Its IC50 is 0.001 to 0.1 µM.

How did the IC50 turn out when `Fc1cc(-c2nnc(C(F)F)o2)cnc1COc1cccc2cnccc12` [Compound 125] was run?
The IC50 was 0.001 to 0.1 µM.

For `Fc1cc(-c2nnc(C(F)F)o2)cnc1COc1cccc2ccncc12` [Compound 126], which IC50 is on record?
Its IC50 is 0.001 to 0.1 µM.

For `N#Cc1ccccc1OCc1ncc(-c2nnc(C(F)F)o2)cc1F` [Compound 127], which IC50 is on record?
Its IC50 is 0.001 to 0.1 µM.

How did the IC50 turn out when `C#Cc1cccc(OCc2ncc(-c3nnc(C(F)F)o3)cc2F)c1` [Compound 128] was run?
Its IC50 is 0.001 to 0.1 µM.

Which IC50 does the source give for `Fc1ccc(OCc2ncc(-c3nnc(C(F)F)o3)cc2F)cc1F` [Compound 129] here?
The IC50 was 0.001 to 0.1 µM.

How did the IC50 turn out when `Fc1cc(-c2nnc(C(F)F)o2)cnc1COc1cccc2cccnc12` [Compound 130] was run?
Its IC50 is 0.001 to 0.1 µM.

For `Fc1ccc(OCc2ncc(-c3nnc(C(F)F)o3)cc2F)c(F)c1` [Compound 131], which IC50 is on record?
The IC50 was 0.001 to 0.1 µM.

How did the IC50 turn out when `Fc1cc(-c2nnc(C(F)F)o2)cnc1COc1cccc2ncccc12` [Compound 132] was run?
The IC50 was 0.001 to 0.1 µM.

`Cc1noc2cccc(OCc3ncc(-c4nnc(C(F)F)o4)cn3)c12` [Compound 134] was tested. Which IC50 did it give?
Its IC50 is 0.001 to 0.1 µM.

With `Cc1noc2cc(OCc3ncc(-c4nnc(C(F)F)o4)cn3)ccc12` [Compound 136] as the molecule, how does the IC50 read?
Its IC50 is 0.001 to 0.1 µM.

Which IC50 does the source give for `Cc1noc2cc(OCc3ncc(-c4nnc(C(F)F)o4)cc3F)ccc12` [Compound 137, 6-((5-(5-(difluoromethyl)-1,3,4-oxadiazol-2-yl)-3-fluoropyridin-2-yl)methoxy)-3-methylbenzo[d]isoxazole] here?
Its IC50 is 0.001 to 0.1 µM.

How did the IC50 turn out when `Cn1ncc2cc(OCc3ncc(-c4nnc(C(F)F)o4)cn3)ccc21` [Compound 138] was run?
The IC50 was 0.001 to 0.1 µM.

With `Cn1ncc2cc(OCc3ncc(-c4nnc(C(F)F)o4)cc3F)ccc21` [Compound 139, 2-(difluoromethyl)-5-(5-fluoro-6-(((1-methyl-1H-indazol-5-yl)oxy)methyl)pyridin-3-yl)-1,3,4-oxadiazole] as the molecule, how does the IC50 read?
Its IC50 is 0.001 to 0.1 µM.

Which IC50 does the source give for `Cc1nc2cc(OCc3ncc(-c4nnc(C(F)F)o4)cn3)ccc2o1` [Compound 140] here?
The IC50 was 0.001 to 0.1 µM.

With `Cc1nc2cc(OCc3ncc(-c4nnc(C(F)F)o4)cc3F)ccc2o1` [Compound 141] as the molecule, how does the IC50 read?
The IC50 was 0.001 to 0.1 µM.

For `FC(F)c1nnc(-c2cnc(COc3ccc4ocnc4c3)nc2)o1` [Compound 142], which IC50 is on record?
The IC50 was 0.001 to 0.1 µM.

`FC(F)c1nnc(-c2cnc(COc3cccc4ocnc34)nc2)o1` [Compound 144] was tested. Which IC50 did it give?
Its IC50 is 0.001 to 0.1 µM.

For `Cn1cnc2cc(OCc3ncc(-c4nnc(C(F)F)o4)cn3)ccc21` [Compound 146], which IC50 is on record?
The IC50 was 0.001 to 0.1 µM.

For `Cn1cnc2cc(OCc3ncc(-c4nnc(C(F)F)o4)cc3F)ccc21` [Compound 147], which IC50 is on record?
The IC50 was 0.001 to 0.1 µM.

How did the IC50 turn out when `FC(F)c1nnc(-c2cnc(COc3ccc4nccnc4c3)nc2)o1` [Compound 150] was run?
Its IC50 is 0.001 to 0.1 µM.

Which IC50 does the source give for `Fc1cc(-c2nnc(C(F)F)o2)cnc1COc1ccc2nccnc2c1` [Compound 151] here?
Its IC50 is 0.001 to 0.1 µM.

Which IC50 does the source give for `FC(F)c1nnc(-c2cnc(COc3ccc4ncccc4c3)nc2)o1` [Compound 152] here?
The IC50 was 0.001 to 0.1 µM.

With `Fc1cc(-c2nnc(C(F)F)o2)cnc1COc1ccc2ncccc2c1` [Compound 153] as the molecule, how does the IC50 read?
Its IC50 is 0.001 to 0.1 µM.

With `FC(F)c1nnc(-c2cnc(COc3ccc4cnccc4c3)nc2)o1` [Compound 154] as the molecule, how does the IC50 read?
The IC50 was 0.001 to 0.1 µM.

`Fc1cc(-c2nnc(C(F)F)o2)cnc1COc1ccc2cnccc2c1` [Compound 155] was tested. Which IC50 did it give?
Its IC50 is 0.001 to 0.1 µM.

For `FC(F)c1nnc(-c2cnc(COc3ccc4ccncc4c3)nc2)o1` [Compound 156], which IC50 is on record?
The IC50 was 0.001 to 0.1 µM.

How did the IC50 turn out when `Fc1cc(-c2nnc(C(F)F)o2)cnc1COc1ccc2ccncc2c1` [Compound 157] was run?
Its IC50 is 0.001 to 0.1 µM.

For `FC(F)c1nnc(-c2cnc(COc3cccc4nccnc34)nc2)o1` [Compound 158], which IC50 is on record?
Its IC50 is 0.001 to 0.1 µM.

With `Fc1cc(-c2nnc(C(F)F)o2)cnc1COc1cccc2nccnc12` [Compound 159] as the molecule, how does the IC50 read?
The IC50 was 0.001 to 0.1 µM.

For `FC(F)c1nnc(-c2cnc(COc3cccc4cncnc34)nc2)o1` [Compound 160], which IC50 is on record?
Its IC50 is 0.001 to 0.1 µM.

`Fc1cc(-c2nnc(C(F)F)o2)cnc1COc1cccc2cncnc12` [Compound 161] was tested. Which IC50 did it give?
The IC50 was 0.001 to 0.1 µM.

For `FC(F)c1nnc(-c2cnc(COc3cccnc3)nc2)o1` [Compound 162], which IC50 is on record?
The IC50 was 0.001 to 0.1 µM.
